From patent EP4755880A1, “SUBSTITUTED NITROGEN-CONTAINING BICYCLIC COMPOUND AND USE THEREOF” (Sunshine Lake Pharma Co., Ltd., priority 2023, dated 2025)

Key:
DLD-1 BRCA2(-/-) cells = assay: Inhibition of proliferation of DLD-1 BRCA2(-/-) cells (CTG method); type: cell-based; conditions: Homo sapiens, DLD-1, 168 h; 7 days incubation, CellTiter-Glo
Protocol: • 1. Cell Pretreatment: DLD-1 BRCA2(-/-) cells were cultured in growth medium 1640 + 10% FBS (fetal bovine serum) + 1% Penicillin-Streptomycin. Cells in the logarithmic growth phase were digested with trypsin-EDTA, centrifuged, and resuspended. DLD-1 BRCA2(-/-) cells were seeded at 1,000 cells/well in sterile 96-well opaque plates, 75 µl per well. After seeding, the cell culture plates were incubated overnight at 37 °C with 5% CO2 before adhesion, followed by treatment with the test compounds. • 2. DLD-1 BRCA2(-/-) Cell Drug Treatment: The test compound was prepared as a 10 mM stock solution using DMSO. The test compound was then diluted to a 4× working solution using growth medium (starting at 40 µM, with 9 4-fold dilutions). 25 µl of 4× working solution was added to each well to achieve final concentrations of 10000, 2500, 625, 156, 39, 9.7, 2.4, 0.61, and 0.152 nM, respectively. Blank control wells containing the same DMSO concentration were also included, with three replicates for each concentration. After adding the test compound, the cells were incubated at 37 °C with 5% CO2 for 7 days. • 3. After incubation, 100 µl of CellTiter-Glo® Reagent was added to each well, and […] intensity was measured. A curve was fitted using GraphPad software, and the IC50 value for cell proliferation inhibition was calculated.

MDA-MB-436 cells = assay: Inhibition of proliferation of MDA-MB-436 cells (CellTiter-Glo); type: cell-based; conditions: Homo sapiens, MDA-MB-436, 168 h, 7 days incubation
Protocol: • 1. Cell Pretreatment: MDA-MB-436 cells were cultured in DMEM + 10% FBS + 1% penicillin-dip antibiotics + 1% ITS + 16 µg/ml glutathione. Cells in the logarithmic growth phase were digested with trypsin-EDTA, centrifuged and resuspended, and then seeded at a rate of 500-1000 cells/well in sterile 96-well opaque plates, 90 µl per well. After seeding, the cell culture plates were incubated overnight at 37°C with 5% CO2 before drug treatment. • 2. Drug treatment of MDA-MB-436 cells: The test compound was prepared as a 10 mM stock solution using DMSO. The drug was then diluted to a 10× working solution using growth medium (the compound was started at 100 µM and diluted 4-fold to achieve 9 concentrations). 10 µl of the 10× working solution was added to each well to achieve final drug concentrations of 10000, 2500, 625, 156, 39, 9.7, 2.4, 0.61, and 0.152 nM, respectively. Blank control wells containing the same DMSO concentration were also included, with three replicates for each concentration. After drug addition, the cells were incubated at 37°C with 5% CO2 for 7 days. • 3. After incubation, 100 µl of CellTiter-Glo® Reagent was added to each well, and luminescence was measured. The IC50 value of cell proliferation inhibition was calculated using GraphPad software to fit the curve. Table E: Results of the inhibitory effect of the compound of this invention on the proliferation of MDA-MB-436 cells.

PARP2 = PARP2 (Homo sapiens, UniProt Q9UGN5); assay: biochemical;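 also: PARP2 enzyme ELISA on histone-coated plates, Strep-HRP detection with chemiluminescence read-out, 10 min compound preincubation with enzyme, inhibition scaled between Max and Min signal controls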
Sequence of PARP2 (Q9UGN5 whole entry): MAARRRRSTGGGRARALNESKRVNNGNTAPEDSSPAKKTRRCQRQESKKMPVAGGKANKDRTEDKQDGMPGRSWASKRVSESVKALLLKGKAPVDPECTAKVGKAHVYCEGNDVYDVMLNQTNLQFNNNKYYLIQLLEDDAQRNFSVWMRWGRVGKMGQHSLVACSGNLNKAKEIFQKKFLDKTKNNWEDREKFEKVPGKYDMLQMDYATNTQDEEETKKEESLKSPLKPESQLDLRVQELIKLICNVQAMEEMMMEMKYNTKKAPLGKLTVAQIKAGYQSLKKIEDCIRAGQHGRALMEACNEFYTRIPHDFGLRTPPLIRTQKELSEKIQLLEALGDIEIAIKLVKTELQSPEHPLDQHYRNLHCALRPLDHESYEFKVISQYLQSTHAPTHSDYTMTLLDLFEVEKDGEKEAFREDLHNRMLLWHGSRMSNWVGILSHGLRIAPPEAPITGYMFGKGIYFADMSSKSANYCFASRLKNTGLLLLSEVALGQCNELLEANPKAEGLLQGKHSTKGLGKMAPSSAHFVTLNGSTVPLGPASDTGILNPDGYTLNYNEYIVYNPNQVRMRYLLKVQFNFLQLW
Protocol: Experimental Objective: To evaluate the inhibitory effect of the compounds of the present invention on the enzyme activities of PARP1 and PARP2 using ELISA.
• 1. histone-coated 384-well plates was prepared: 25 µL of histone solution was added to each well and incubated overnight at 4 °C. • 2. PBST buffer, blocking buffer (PBS buffer with 5% BSA and 0.05% Tween-20 added) and detection buffer (20 mM HEPES pH 7.5 + 100 mM NaCl + 2 mM DTT + 0.002% Tween-20 + 0.1% BSA) were prepared. • 3. The histone-coated 3 84-well plate was washed three times with PBST buffer, blocked at room temperature with 50 µL blocking buffer for 1 hour, and then washed three times with PBST buffer. • 4. Test compounds were prepared as 2000-fold stock solutions in DMSO. 50 nL of the stock solution was mixed with 19.95 µL detection buffer, and 5 µL of the gradient-diluted test compound was transferred to each well. • 5. Enzymatic reaction (PARP1): PARP1 & DNA mix was pre-incubated at 25 °C for 10 minutes. 10 µL of the PARP1 & DNA mix was added to each well and incubated with the test compound at room temperature for 10 minutes. […] Finally, the 384-well plate was washed three times with PBST buffer. Enzymatic reaction (PARP2): PARP2 was pre-incubated at 25 °C for 10 minutes. 10 µL of PARP2 was added to each well and incubated with the test compound at room temperature for 10 minutes. […] Finally, the 384-well plate was washed three times with PBST buffer. • 6. Detection (PARP1): 20 µL of anti-Poly/Mono-ADP Ribose Rabbit mAb was added and incubated at room temperature for 1.5 hours, followed by three washes of the 384-well plate with PBST buffer. Then, 20 µL of diluted anti-rabbit IgG, HRP-linked Antibody (diluted 1:2000 in blocking buffer) was added and incubated at room temperature for 1 hour. After washing the plate three times with PBST buffer, 25 µL of a 1:1 mixture of Femto-ECL Substrate A and Femto-ECL Substrate B was added. Detection (PARP2): 25 µL of Strep-HRP was added and incubated at room temperature for 1 hour, followed by three washes of the 384-well plate with PBS buffer. Then, 25 µL of a 1:1 mixture of Femto-ECL Substrate A and Femto-ECL Substrate B was added. • 7. Chemiluminescence intensity was measured using an Envision multimode microplate reader. • 8. Data Processing
The inhibition rate was calculated in Excel using formula (1). inh% = (Max−Signal)/(Max−Min)*100 [formula]
The IC50 value was obtained by fitting the data in XL-Fit using formula (2). Y = bottom + (top−bottom)/(1+(IC50/X)*HillSlope); [formula] wherein Y is the inhibition percentage and X is the compound concentration.

PARP1 = PARP1 (Homo sapiens, UniProt P09874); assay: Inhibition of PARP1 enzyme activity (ELISA, chemiluminescence); type: biochemical; conditions: for IC50: ELISA, histone-coated plate, NAD+, 60 min at 25 °C; for Selectivity PARP2/PARP1: ratio of PARP2 IC50 to PARP1 IC50
Sequence of PARP1 (P09874 whole entry): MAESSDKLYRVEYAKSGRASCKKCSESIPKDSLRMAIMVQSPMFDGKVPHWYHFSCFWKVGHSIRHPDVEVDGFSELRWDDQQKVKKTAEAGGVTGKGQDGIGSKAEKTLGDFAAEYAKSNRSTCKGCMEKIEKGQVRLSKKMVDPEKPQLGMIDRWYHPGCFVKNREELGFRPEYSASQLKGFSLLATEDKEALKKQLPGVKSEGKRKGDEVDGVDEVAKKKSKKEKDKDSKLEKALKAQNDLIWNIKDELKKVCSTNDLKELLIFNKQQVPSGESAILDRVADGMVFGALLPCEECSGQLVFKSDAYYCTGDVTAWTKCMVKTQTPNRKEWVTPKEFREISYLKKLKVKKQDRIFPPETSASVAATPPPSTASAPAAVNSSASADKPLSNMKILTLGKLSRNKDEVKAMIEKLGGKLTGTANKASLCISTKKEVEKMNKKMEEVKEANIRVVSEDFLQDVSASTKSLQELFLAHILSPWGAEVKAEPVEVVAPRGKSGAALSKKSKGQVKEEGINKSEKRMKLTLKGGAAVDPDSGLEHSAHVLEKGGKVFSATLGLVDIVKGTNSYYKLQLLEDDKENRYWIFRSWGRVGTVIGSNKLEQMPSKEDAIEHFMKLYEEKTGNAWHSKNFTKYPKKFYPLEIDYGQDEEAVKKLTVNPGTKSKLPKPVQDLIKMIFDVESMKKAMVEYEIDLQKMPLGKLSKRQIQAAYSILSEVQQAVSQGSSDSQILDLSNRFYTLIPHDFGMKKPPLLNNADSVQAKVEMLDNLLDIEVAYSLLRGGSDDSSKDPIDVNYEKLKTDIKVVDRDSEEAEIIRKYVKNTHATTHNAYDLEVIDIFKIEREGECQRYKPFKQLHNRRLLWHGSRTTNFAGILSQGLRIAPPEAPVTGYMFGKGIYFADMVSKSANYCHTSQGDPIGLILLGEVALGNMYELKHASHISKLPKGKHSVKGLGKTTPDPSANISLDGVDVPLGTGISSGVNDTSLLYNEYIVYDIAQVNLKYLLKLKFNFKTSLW

[1] = Pharmacokinetics in mice after intravenous injection or gavage; conditions: BALB/c, mouse, plasma
Protocol: The compounds of the present invention were administered to test animals in the form of 5% DMSO + 30% PEG400 + 65% physiological saline, 10% DMSO + 10% Kolliphor HS15 + 80% Saline, 10% DMSO + 89% (25% SBE-B-CD) + (2% HCl), 20% PEG400 + 80% sterile water for injection, or 10% DMA+ 10% HS15 + 30% PEG400 + 50% sterile aqueous solution for injection. Animals were fasted for 12 hours before administration but had free access to water. For the intravenous administration group, the dose was 1 mg/kg. Blood samples (approximately 0.15 mL) were collected intravenously at the following time points after administration: 0.083, 0.25, 0.5, 1.0, 2.0, 4.0, 6.0, 8.0 and 24 h (dogs) or 0.083, 0.25, 0.5, 1.0, 2.0, 5.0, 7.0 and 24 h (mice and rats) or 0.083, 0.25, 0.5, 1.0, 2.0, 6.0, 8.0 and 24 h (monkeys). EDTA-K2 was pre-added to the blood collection tube as an anticoagulant. The blood samples were centrifuged at 12,000 rpm for 2 minutes, and plasma was collected and stored at -20 °C or - 70 °C. For the gavage administration group, the dosage was 1 mg/kg (mice, dogs, and monkeys) or 5 mg/kg (rats). After administration, venous blood samples (approximately 0.15 mL) were collected at the following time points: 0.25, 0.5, 1.0, 2.0, 4.0, 6.0, 8.0, and 24 h (dogs) or 0.25, 0.5, 1.0, 2.0, 5.0, 7.0, and 24 h (mice and rats) or 0.25, 0.5, 1.0, 2.0, 6.0, 8.0, and 24 h (monkeys). EDTA-K2 was pre-added to the blood collection tube as an anticoagulant. The blood samples were centrifuged at 12,000 rpm for 2 minutes, and plasma was collected and stored at -20 °C or -70 °C.
The collected plasma samples were processed (frozen plasma was thawed at room temperature, vortexed for 15 s to mix, 10-20 µL of plasma was taken, 120-150 µL of acetonitrile solution containing internal standard was added, vortexed for 5 min to mix, centrifuged at 4,000 rpm for 5 min, 100 µL of supernatant was taken, and 120-150 Ml/water (v/v = 1/1) was added and mixed). The concentration of compounds in the plasma was then analyzed by LC-MS/MS.

Structure (SMILES)	IC50 (DLD-1 BRCA2(-/-) cells) [nM]	IC50 (MDA-MB-436 cells) [nM]	IC50 (PARP2) [nM]	IC50 (PARP1) [nM]	Selectivity PARP2/PARP1 (PARP1)	other results
CNC(=O)c1ccc(N2CCN(Cc3cc(Oc4ccc(F)cc4)c4nc(C)c(=O)[nH]c4c3)CC2)c(F)n1 [Example 6, 6-fluoro-5-(4-((8-(4-fluorophenoxy)-2-methyl-3-oxo-3,4-dihydroquinoxalin-6-yl)methyl)piperazin-1-yl)-N-methylpicolinamide]	14.5	6.8	839	1.2	700.1	
CNC(=O)c1ccc(N2CCN(Cc3cc(-c4ccccc4F)c4nc(C)c(=O)[nH]c4c3)CC2)c(F)n1 [Example 8, 6-fluoro-5-(4-((8-(2-fluorophenyl)-2-methyl-3-oxo-3,4-dihydroquinoxalin-6-yl)methyl)piperazin-1-yl)-N-methylpicolinamide]	32.2	23.6	2690	4.1	657.2	
CNC(=O)c1ccc(N2CCN(Cc3cc(-c4cccnc4)c4nc(C)c(=O)[nH]c4c3)CC2)c(F)n1 [Example 11, 6-fluoro-N-methyl-5-(4-((2-methyl-3-oxo-8-(pyridin-3-yl)-3,4-dihydroquinoxalin-6-yl)methyl)piperazin-1-yl)picolinamide]	12.9	10.7	676	3.01	224.6	
CNC(=O)c1ccc(C2=CCN(Cc3cc(OC(F)F)c4nc(C)c(=O)[nH]c4c3F)CC2)c(F)n1 [Example 16, 1'-((8-(difluoromethoxy)-5-fluoro-2-methyl-3-oxo-3,4-dihydroquinoxalin-6-yl)methyl)-2-fluoro-N-methyl-1',2',3',6'-tetrahydro-[3,4'-bipyridine]-6-carboxamide]		6.2	> 10000	2.8	>3625	
CNC(=O)c1ccc(N2CCN(Cc3cc(OC4CC(F)(F)C4)c4nc(C)c(=O)[nH]c4c3)CC2)c(F)n1 [Example 18, 5-(4-((8-(3,3-difluorocyclobutoxy)-2-methyl-3-oxo-3,4-dihydroquinoxalin-6-yl)methyl)piperazin-1-yl)-6-fluoro-N-methylpicolinamide]	7.9	0.9	93.3	1.7	54.7	
CC#Cc1cc(CN2CCN(c3ccc(C(=O)NC)nc3C)CC2)cc2[nH]c(=O)c(C)nc12 [Example 38, N,6-dimethyl-5-(4-((2-methyl-3-oxo-8-(prop-1-yn-1-yl)-3,4-dihydroquinoxalin-6-yl)methyl)piperazin-1-yl)picolinamide]	15.1	5				
CNC(=O)c1ccc(N2CCN(Cc3cc(C#Cc4ccccc4)c4nc(C)c(=O)[nH]c4c3F)CC2)c(F)n1 [Example 53, 6-fluoro-5-(4-((5-fluoro-2-methyl-3-oxo-8-(phenylethynyl)-3,4-dihydroquinoxalin-6-yl)methyl)piperazin-1-yl)-N-methylpicolinamide]	963	3940				
CNC(=O)c1ccc(N2CCN(Cc3cc(-c4ccnn4C)c4nc(C)c(=O)[nH]c4c3)CC2)c(F)n1 [Example 68, 6-fluoro-N-methyl-5-(4-((2-methyl-8-(1-methyl-1H-pyrazol-5-yl)-3-oxo-3,4-dihydroquinoxalin-6-yl)methyl)piperazin-1-yl)picolinamide]	33.3	35.6				
CNC(=O)c1ccc(N2CCN(Cc3cc(-c4ccc(OC)cc4)c4nc(C)c(=O)[nH]c4c3)CC2)c(F)n1 [Example 69, 6-fluoro-5-(4-((8-(4-methoxyphenyl)-2-methyl-3-oxo-3,4-dihydroquinoxalin-6-yl)methyl)piperazin-1-yl)-N-methylpyridine amide]	32.6		8820	3.2	2751.7	
CNC(=O)c1ccc(N2CCN(Cc3cc(-c4cnn(C)c4)c4nc(C)c(=O)[nH]c4c3)CC2)c(F)n1 [Example 70, 6-fluoro-N-methyl-5-(4-((2-methyl-8-(1-methyl-1H-pyrazol-4-yl)-3-oxo-3,4-dihydroquinoxalin-6-yl)methyl)piperazin-1-yl)picolinamide]	14.2	13.9				

Continued, in another order:

IC50 (DLD-1 BRCA2(-/-) cells) [nM]	IC50 (MDA-MB-436 cells) [nM]	IC50 (PARP2) [nM]	IC50 (PARP1) [nM]	Selectivity PARP2/PARP1 (PARP1)	Structure (SMILES)	other results
4.7	5.3	1780	1.84	968.5	CNC(=O)c1ccc(N2CCN(Cc3cc(Oc4ccccc4)c4nc(C)c(=O)[nH]c4c3)CC2)c(F)n1 [Example 4, 6-fluoro-N-methyl-5-(4-((2-methyl-3-oxo-8-phenoxy-3,4-dihydroquinoxalin-6-yl)methyl)piperazin-1-yl)picolinamide]	
6.1	< 0.038				CNC(=O)c1ccc(N2CCN(Cc3cc(Nc4ccccc4)c4nc(C)c(=O)[nH]c4c3)CC2)c(F)n1 [Example 5, 6-fluoro-N-methyl-5-(4-((2-methyl-3-oxo-8-(phenylamino)-3,4-dihydroquinoxalin-6-yl)methyl)piperazin-1-yl)picolinamide]	
11.1	8.1	1140	1.61	705.3	CNC(=O)c1ccc(N2CCN(Cc3cc(-c4cccc(F)c4)c4nc(C)c(=O)[nH]c4c3)CC2)c(F)n1 [Example 9, 6-fluoro-5-(4-((8-(3-fluorophenyl)-2-methyl-3-oxo-3,4-dihydroquinoxalin-6-yl)methyl)piperazin-1-yl)-N-methylpicolinamide]	
7.5	1.7				CNC(=O)c1ccc(N2CCN(Cc3cc(-c4ccc(F)cc4)c4nc(C)c(=O)[nH]c4c3)CC2)c(F)n1 [Example 10, 6-fluoro-5-(4-((8-(4-fluorophenyl)-2-methyl-3-oxo-3,4-dihydroquinoxalin-6-yl)methyl)piperazin-1-yl)-N-methylpicolinamide]	
9.3		9660	27.7	348.3	CNC(=O)c1ccc(N2CCN(Cc3cc(OC(F)F)c4nc(C)c(=O)[nH]c4c3F)CC2)c(F)n1 [Example 14, 5-(4-((8-(difluoromethoxy)-5-fluoro-2-methyl-3-oxo-3,4-dihydroquinoxalin-6-yl)methyl)piperazin-1-yl)-6-fluoro-N-methylpicolinamide]	AUC(0-t) ([1]; iv, 2 mg/kg): 4680 ng·h/mL; Cmax ([1]; iv, 2 mg/kg): 2080 ng/mL; half-life ([1]; iv, 2 mg/kg): 3.3 h; AUC(0-t) ([1]; po, 5 mg/kg): 16200 ng·h/mL; Cmax ([1]; po, 5 mg/kg): 3830 ng/mL; half-life ([1]; po, 5 mg/kg): 3.3 h
1.5	4.2	70	0.7	107.3	CNC(=O)c1ccc(N2CCN(Cc3cc(C4CC4)c4nc(C)c(=O)[nH]c4c3F)CC2)c(F)n1 [Example 19, 5-(4-((8-cyclopropyl-5-fluoro-2-methyl-3-oxo-3,4-dihydroquinoxalin-6-yl)methyl)piperazin-1-yl)-6-fluoro-N-methylpicolinamide]	
1.3	3.5				C=Cc1cc(CN2CCN(c3ccc(C(=O)NC)nc3F)CC2)cc2[nH]c(=O)c(C)nc12 [Example 25, 6-fluoro-N-methyl-5-(4-((2-methyl-3-oxo-8-vinyl-3,4-dihydroquinoxalin-6-yl)methyl)piperazin-1-yl)picolinamide]	
8.3	14.7				CNC(=O)c1ccc(N2CCN(Cc3cc(OC(F)F)c4nc(C(F)F)c(=O)[nH]c4c3)CC2)c(F)n1 [Example 56, 5-(4-((8-(difluoromethoxy)-2-(difluoromethyl)-3-oxo-3,4-dihydroquinoxalin-6-yl)methyl)piperazin-1-yl)-6-fluoro-N-methylpicolinamide]	
8.59	20.3				Cc1nc2c(OC(F)F)cc(CN3CCN(c4ccc(C(=O)NC5CC5)nc4F)CC3)c(F)c2[nH]c1=O [Example 61, N-cyclopropyl-5-(4-((8-(difluoromethoxy)-5-fluoro-2-methyl-3-oxo-3,4-dihydroquinoxalin-6-yl)methyl)piperazin-1-yl)-6-fluoropicolinamide]	
